Data from the NIST ThermoML archive (doi:10.1016/j.jct.2018.01.024).

Experiment: mn = molality of the nth substance listed, in mol/kg
Conditions: Liquid

NC(N)=O [urea] + O
Conditions	mass density [kg/m3]
274.15 K, 101 kPa, Vibrating tube method, m1 = 0.093	1001.57
274.15 K, 101 kPa, Vibrating tube method, m1 = 0.1063	1001.81
274.15 K, 101 kPa, Vibrating tube method, m1 = 0.141	1002.43
274.15 K, 101 kPa, Vibrating tube method, m1 = 0.152	1002.62
274.15 K, 101 kPa, Vibrating tube method, m1 = 0.1809	1003.14
274.15 K, 101 kPa, Vibrating tube method, m1 = 0.2423	1004.22
274.15 K, 101 kPa, Vibrating tube method, m1 = 0.4362	1007.6
274.15 K, 101 kPa, Vibrating tube method, m1 = 0.5644	1009.79
274.15 K, 101 kPa, Vibrating tube method, m1 = 1.008	1017.11
274.15 K, 101 kPa, Vibrating tube method, m1 = 1.609	1026.44
274.15 K, 101 kPa, Vibrating tube method, m1 = 2.505	1039.26
275.15 K, 101 kPa, Vibrating tube method, m1 = 0.093	1001.6
275.15 K, 101 kPa, Vibrating tube method, m1 = 0.1063	1001.84
275.15 K, 101 kPa, Vibrating tube method, m1 = 0.141	1002.45
275.15 K, 101 kPa, Vibrating tube method, m1 = 0.152	1002.64
275.15 K, 101 kPa, Vibrating tube method, m1 = 0.1809	1003.16
275.15 K, 101 kPa, Vibrating tube method, m1 = 0.2423	1004.23
275.15 K, 101 kPa, Vibrating tube method, m1 = 0.4362	1007.59
275.15 K, 101 kPa, Vibrating tube method, m1 = 0.5644	1009.77
275.15 K, 101 kPa, Vibrating tube method, m1 = 1.008	1017.04
275.15 K, 101 kPa, Vibrating tube method, m1 = 1.609	1026.31
275.15 K, 101 kPa, Vibrating tube method, m1 = 2.505	1039.07
276.15 K, 101 kPa, Vibrating tube method, m1 = 0.093	1001.61
276.15 K, 101 kPa, Vibrating tube method, m1 = 0.1063	1001.85
276.15 K, 101 kPa, Vibrating tube method, m1 = 0.141	1002.46
276.15 K, 101 kPa, Vibrating tube method, m1 = 0.152	1002.65
276.15 K, 101 kPa, Vibrating tube method, m1 = 0.1809	1003.16
276.15 K, 101 kPa, Vibrating tube method, m1 = 0.2423	1004.22
276.15 K, 101 kPa, Vibrating tube method, m1 = 0.4362	1007.56
276.15 K, 101 kPa, Vibrating tube method, m1 = 0.5644	1009.73
276.15 K, 101 kPa, Vibrating tube method, m1 = 1.008	1016.96
276.15 K, 101 kPa, Vibrating tube method, m1 = 1.609	1026.17
276.15 K, 101 kPa, Vibrating tube method, m1 = 2.505	1038.86
277.15 K, 101 kPa, Vibrating tube method, m1 = 0.093	1001.61
277.15 K, 101 kPa, Vibrating tube method, m1 = 0.1063	1001.85
277.15 K, 101 kPa, Vibrating tube method, m1 = 0.141	1002.45
277.15 K, 101 kPa, Vibrating tube method, m1 = 0.152	1002.64
277.15 K, 101 kPa, Vibrating tube method, m1 = 0.1809	1003.15
277.15 K, 101 kPa, Vibrating tube method, m1 = 0.2423	1004.2
277.15 K, 101 kPa, Vibrating tube method, m1 = 0.4362	1007.52
277.15 K, 101 kPa, Vibrating tube method, m1 = 0.5644	1009.67
277.15 K, 101 kPa, Vibrating tube method, m1 = 1.008	1016.85
277.15 K, 101 kPa, Vibrating tube method, m1 = 1.609	1026.02
277.15 K, 101 kPa, Vibrating tube method, m1 = 2.505	1038.66
278.15 K, 101 kPa, Vibrating tube method, m1 = 0.093	1001.59
278.15 K, 101 kPa, Vibrating tube method, m1 = 0.1063	1001.82
278.15 K, 101 kPa, Vibrating tube method, m1 = 0.141	1002.42
278.15 K, 101 kPa, Vibrating tube method, m1 = 0.152	1002.61
278.15 K, 101 kPa, Vibrating tube method, m1 = 0.1809	1003.12
278.15 K, 101 kPa, Vibrating tube method, m1 = 0.2423	1004.17
278.15 K, 101 kPa, Vibrating tube method, m1 = 0.4362	1007.46
278.15 K, 101 kPa, Vibrating tube method, m1 = 0.5644	1009.6
278.15 K, 101 kPa, Vibrating tube method, m1 = 1.008	1016.74
278.15 K, 101 kPa, Vibrating tube method, m1 = 1.609	1025.85
278.15 K, 101 kPa, Vibrating tube method, m1 = 2.505	1038.42
278.15 K, 101 kPa, Vibrating tube method, m1 = 3.376	1049.57
278.15 K, 101 kPa, Vibrating tube method, m1 = 4.33	1060.83
278.15 K, 101 kPa, Vibrating tube method, m1 = 5.39	1072.16
278.15 K, 101 kPa, Vibrating tube method, m1 = 8	1096.24
278.15 K, 101 kPa, Vibrating tube method, m1 = 9.9	1110.86
278.15 K, 101 kPa, Vibrating tube method, m1 = 12.8	1129.78
278.15 K, 10000 kPa, Constant-volume piezometry, m1 = 0.1809	1007.91
278.15 K, 10000 kPa, Constant-volume piezometry, m1 = 0.4362	1012.23
278.15 K, 10000 kPa, Constant-volume piezometry, m1 = 0.5644	1014.35
278.15 K, 10000 kPa, Constant-volume piezometry, m1 = 1.609	1030.49
278.15 K, 10000 kPa, Constant-volume piezometry, m1 = 2.505	1042.94
278.15 K, 10000 kPa, Constant-volume piezometry, m1 = 3.376	1053.98
278.15 K, 10000 kPa, Constant-volume piezometry, m1 = 5.39	1076.38
278.15 K, 10000 kPa, Constant-volume piezometry, m1 = 8	1100.31
278.15 K, 10000 kPa, Constant-volume piezometry, m1 = 10.99	1122.33
278.15 K, 10000 kPa, Constant-volume piezometry, m1 = 12.8	1133.68
278.15 K, 25000 kPa, Constant-volume piezometry, m1 = 0.1809	1014.96
278.15 K, 25000 kPa, Constant-volume piezometry, m1 = 0.4362	1019.23
278.15 K, 25000 kPa, Constant-volume piezometry, m1 = 0.5644	1021.32
278.15 K, 25000 kPa, Constant-volume piezometry, m1 = 1.609	1037.26
278.15 K, 25000 kPa, Constant-volume piezometry, m1 = 2.505	1049.56
278.15 K, 25000 kPa, Constant-volume piezometry, m1 = 3.376	1060.45
278.15 K, 25000 kPa, Constant-volume piezometry, m1 = 5.39	1082.6
278.15 K, 25000 kPa, Constant-volume piezometry, m1 = 8	1106.3
278.15 K, 25000 kPa, Constant-volume piezometry, m1 = 10.99	1128.15
278.15 K, 25000 kPa, Constant-volume piezometry, m1 = 12.8	1139.4
278.15 K, 50000 kPa, Constant-volume piezometry, m1 = 0.1809	1026.22
278.15 K, 50000 kPa, Constant-volume piezometry, m1 = 0.4362	1030.39
278.15 K, 50000 kPa, Constant-volume piezometry, m1 = 0.5644	1032.44
278.15 K, 50000 kPa, Constant-volume piezometry, m1 = 1.609	1048.03
278.15 K, 50000 kPa, Constant-volume piezometry, m1 = 2.505	1060.07
278.15 K, 50000 kPa, Constant-volume piezometry, m1 = 3.376	1070.75
278.15 K, 50000 kPa, Constant-volume piezometry, m1 = 5.39	1092.51
278.15 K, 50000 kPa, Constant-volume piezometry, m1 = 8	1115.83
278.15 K, 50000 kPa, Constant-volume piezometry, m1 = 10.99	1137.36
278.15 K, 50000 kPa, Constant-volume piezometry, m1 = 12.8	1148.51
278.15 K, 75000 kPa, Constant-volume piezometry, m1 = 0.1809	1036.88
278.15 K, 75000 kPa, Constant-volume piezometry, m1 = 0.4362	1040.96
278.15 K, 75000 kPa, Constant-volume piezometry, m1 = 0.5644	1042.96
278.15 K, 75000 kPa, Constant-volume piezometry, m1 = 1.609	1058.21
278.15 K, 75000 kPa, Constant-volume piezometry, m1 = 2.505	1069.97
278.15 K, 75000 kPa, Constant-volume piezometry, m1 = 3.376	1080.48
278.15 K, 75000 kPa, Constant-volume piezometry, m1 = 5.39	1101.91
278.15 K, 75000 kPa, Constant-volume piezometry, m1 = 8	1124.88
278.15 K, 75000 kPa, Constant-volume piezometry, m1 = 10.99	1146.09
278.15 K, 75000 kPa, Constant-volume piezometry, m1 = 12.8	1157.08
278.15 K, 100000 kPa, Constant-volume piezometry, m1 = 0.1809	1046.98
278.15 K, 100000 kPa, Constant-volume piezometry, m1 = 0.4362	1050.97
278.15 K, 100000 kPa, Constant-volume piezometry, m1 = 0.5644	1052.94
278.15 K, 100000 kPa, Constant-volume piezometry, m1 = 1.609	1067.87
278.15 K, 100000 kPa, Constant-volume piezometry, m1 = 2.505	1079.44
278.15 K, 100000 kPa, Constant-volume piezometry, m1 = 3.376	1089.73
278.15 K, 100000 kPa, Constant-volume piezometry, m1 = 5.39	1110.78
278.15 K, 100000 kPa, Constant-volume piezometry, m1 = 8	1133.5
278.15 K, 100000 kPa, Constant-volume piezometry, m1 = 10.99	1154.43
278.15 K, 100000 kPa, Constant-volume piezometry, m1 = 12.8	1165.23
279.15 K, 101 kPa, Vibrating tube method, m1 = 0.093	1001.56
